The values that follow come from patent publication US4588525A, “Prodrug compounds for dermal application” (Molecular Biosystems, Inc., priority 1984, dated 1986).

Molecules are shown by their SMILES.

The conditions of data set [1]: topical, unless accompanied by oral nicotinamide; cited from earlier work.
For data set [2] the following is noted: in vivo; cited from earlier work.
The test system of the next data set is human lung fibroblasts. In words: Inhibition of growth of human lung fibroblasts in culture. Type of data set: cell-based. The settings on record: for IC50: Homo sapiens, Fibroblast, growth inhibition 50%, usually 3-4 days, 10^4 cells/35 mm dish, Coulter counter, read-out: ID50 (the source's name). The procedure: Drugs were evaluated by their ability to inhibit the growth of human lung fibroblasts in culture. Human lung fibroblasts were grown in Eagle's Minimal Essential Media (EMEM) which contained 10% fetal calf serum, 1X non-essential amino acids, and 250 units penicillin and 250 μg streptomycin/ml. Stock cultures of the cells were grown on 100 mm culture plates. For testing purposes, cells were removed from the stock plates with 3 mls trypsin/versene and after appropriate dilution in the culture medium were plated onto 35 mm dishes. Typically, cells were subcultured at 10^4 cells/35 mm dish in 1.5 mls of medium and allowed to attach for 24 hours before the addition of drugs. Triplicate plates were treated with drugs over a wide concentration range. In some cases, it was necessary to dissolve stock solutions of the drugs with 50% ethanol. In such cases, appropriate controls were included to assure that the ethanol had no adverse effects. In all cases, untreated triplicate control plates were employed in order to determine the cell population at the time of drug addition and at the time of experiment ccmpletion (usual 3-4 days). The number of cells on the test and control plates was determined by first removing the medium by aspiration followed by gentle washing with 1 ml phosphate buffered saline. Trypsin/versene (0.5 ml) was then added and the plates incubated at 37° C. for up to 15 minutes or until the cells became detached. One milliliter of EMEM which contained 1X non-essential amino acids was then added in order to neutralize the action of trypsin. The cells were then diluted into ISOTON II (Curtin Matheson Scientific, Houston, Tex.) and counted on a Coulter counter (Coulter Electronics, Hialeah, Fla.) according to the Coulter counter owner's manual.

The test system of a further data set is cancer. Conditions: use questionable due to the CNS side effects; cited from earlier work.
The next data set relates to cellular enzymes. In words: Conversion by cellular enzymes to active 6-aminonicotinamide (interpretation of Table A). Type of data set: cell-based, human. The text has this:
Such cleavages might be exploited to retain local activity but to eliminate systemic toxicity.

Consider `NC(=O)c1ccc(N)nc1` [6-Aminonicotinamide, 6-aminonicotinamide], for which the “central nervous system toxicity (CNS)” value in data set [1] was “a central nervous system toxicity (CNS) may result”. For the same compound, the “effectiveness against psoriasis compared with methotrexate” value in data set [2] is “more effective against psoriasis than methotrexate”. Moreover, in the data set with human lung fibroblasts, the IC50 stood at 2 µM. Moreover, in the data set with cancer, the anti-cancer activity entry is given as “anti-cancer activity”.

Regarding `CCOC(=O)CCCCC(=O)Nc1ccc(C(N)=O)cn1` [6-Aminonicotinamide-N^6 --apidic acid ethyl ester], the IC50 in the data set with human lung fibroblasts stood at 30 µM.

Take `CCCCOC(=O)CCC(=O)Nc1ccc(C(N)=O)cn1` [6-Aminonicotinamide-N^6 --succinate butyl ester]: the IC50 in the data set with human lung fibroblasts turned out to be 20 µM.

Consider `CCOC(=O)CCC(=O)Nc1ccc(C(N)=O)cn1` [6-Aminonicotinamide-N^6 --succinate ethyl ester], for which the IC50 with human lung fibroblasts came to 5 µM.

Turning to `CCCCCCOC(=O)CCC(=O)Nc1ccc(C(N)=O)cn1` [6-Aminonicotinamide-N^6 --succinate hexyl ester], in the data set with human lung fibroblasts, the IC50 came out at 20 µM.

Turning to `COC(=O)CCC(=O)Nc1ccc(C(N)=O)cn1` [6-Aminonicotinamide-N^6 --succinate methyl ester], in the data set on human lung fibroblasts, the IC50 stood at 20 µM.

For the compound `NC(=O)c1ccc(NC(=O)CCC(=O)O)nc1` [6-Aminonicotinamide-N^6 --succinic acid, 6-aminonicotinamide-N^6-succinic acid], the IC50 in the data set on human lung fibroblasts is 2000 µM. The “activity (inhibition of cell growth), in words” value in the data set with human lung fibroblasts (interpretation of Table A) was “essentially inactive”.

With `NC(=O)c1ccc(NC(=O)CCC(=O)N2CCCCC2)nc1` [6-Aminonicotinamide-N^6-succinyl piperidate], in the data set on cellular enzymes, the “conversion by cellular enzymes to active 6-aminonicotinamide” value is reported as “readily converted” and the “efficiency of conversion compared with the other alkyl or ester analogues” value was “more efficient”.

On to `NC(=O)c1ccc(NC(=O)CCC(=O)N2CCOCC2)nc1` [6-Aminonicotinamide-N^6-succinylmorpholidate], for which, in the data set on cellular enzymes, the “conversion by cellular enzymes to active 6-aminonicotinamide” value was “readily converted” and the “efficiency of conversion compared with the other alkyl or ester analogues” value was “more efficient”.

As to `CCCCCCC(=O)Nc1ccc(C(N)=O)cn1` [N^6 --heptanoyl-6-aminonicotinamide], the IC50 with human lung fibroblasts came to 20 µM.
